Test results taken from patent publication US20240376094A2, “SELECTIVE BCL-XL PROTAC COMPOUNDS AND METHODS OF USE” (Les Laboratoires Servier, priority 2021, published 2024).
pIC50: −log10 of the molar value.

Key:
Bcl-xL = target: T1, Bcl-xL (Homo sapiens, UniProt Q07817); experiment: HCT116 Bcl-xL degradation, capillary-based immunoassay (WES); type: cell-based; settings: HCT116, 24 h, 9-point serial dilution
T1 construct: Measured levels of Bcl-xL protein of HCT116 cells treated with the tested compounds; host or cells: HCT116
Procedure, shortened: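 HCT116 cells treated 24 h with compound at 10/100 nM and/or 9-point dilution (quadruplicates), then lysed. Bcl-xL measured by capillary WES immunoassay, normalized to cofilin and expressed as % of untreated cells. DC50 from four-parameter curve fit.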

MOLT-4 cells = experiment: MOLT-4 cell viability, CTG assay; type: cell-based; settings: Homo sapiens, MOLT-4, 48 h
Procedure, shortened: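 Cells grown in RPMI 1640 with 10% FBS at 37° C, 5% CO2, then exposed to compounds for 48 h (11-point 5-fold dilution, triplicates). ATP measured by CellTiter-Glo luminescence; IC50 from four-parameter fit versus control, mean of ≥2 independent experiments.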

T1 sequence (Q07817 whole entry): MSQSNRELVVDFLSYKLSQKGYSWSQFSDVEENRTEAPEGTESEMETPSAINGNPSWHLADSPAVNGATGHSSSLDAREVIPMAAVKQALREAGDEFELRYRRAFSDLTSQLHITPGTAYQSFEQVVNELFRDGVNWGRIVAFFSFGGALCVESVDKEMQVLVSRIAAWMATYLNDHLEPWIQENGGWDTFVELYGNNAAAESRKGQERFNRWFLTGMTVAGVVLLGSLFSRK

Row | DC50 (Bcl-xL) [nM] | pIC50 (MOLT-4 cells) | Structure (SMILES)
1 | > 316 | 8.27 | Cc1c(Nc2nc3ccccc3s2)nnc2c1CCCN2c1ccc(-c2cnn(CC34CC5(C)CC(C)(C3)CC(OCCN(C)CCCCCCCCCCCCCCCCOc3ccc6c(c3)C(=O)N(C3CCC(=O)NC3=O)C6=O)(C5)C4)c2C)c(C(=O)O)n1 (centres unmarked) [Example 147, 6-[3-(1,3-benzothiazol-2-ylamino)-4-methyl-6,7-dihydro-5H-pyrido[2,3-c]pyridazin-8-yl]-3-[1-[[3-[2-[16-[2-(2,6-dioxo-3-piperidyl)-1,3-dioxo-isoindolin-5-yl]oxyhexadecyl-methyl-amino]ethoxy]-5,7-dimethyl-1-adamantyl]methyl]-5-methyl-pyrazol-4-yl]pyridine-2-carboxylic acid]
2 | 18.8 | 8.12 | Cc1ncsc1-c1ccc([C@H](C)NC(=O)[C@@H]2C[C@@H](O)CN2C(=O)[C@@H](NC(=O)CCCCCCCCCCCCCN(C)CCOC23CC4(C)CC(C)(CC(Cn5ncc(-c6ccc(N7CCCc8c7nnc(Nc7nc9ccccc9s7)c8C)nc6C(=O)NC(C)C)c5C)(C4)C2)C3)C(C)(C)C)cc1 [Example 157, 6-[3-(1,3-benzothiazol-2-ylamino)-4-methyl-6,7-dihydro-5H-pyrido[2,3-c]pyridazin-8-yl]-3-[1-[[3-[2-[[14-[[(1S)-1-[(2S,4R)-4-hydroxy-2-[[(1S)-1-[4-(4-methylthiazol-5-yl)phenyl]ethyl]carbamoyl]pyrrolidine-1-carbonyl]-2,2-dimethyl-propyl]amino]-14-oxo-tetradecyl]-methyl-amino]ethoxy]-5,7-dimethyl-1-adamantyl]methyl]-5-methyl-pyrazol-4-yl]-N-isopropyl-pyridine-2-carboxamide]
3 | > 316 | 7.45 | Cc1ncsc1-c1ccc([C@H](C)NC(=O)[C@@H]2C[C@@H](O)CN2C(=O)[C@@H](NC(=O)CCOCCOCCN(C)CCOC23CC4(C)CC(C)(CC(Cn5ncc(-c6ccc(N7CCCc8c7nnc(Nc7nc9ccccc9s7)c8C)nc6C(=O)O)c5C)(C4)C2)C3)C(C)(C)C)cc1 [Example 173, 6-[3-(1,3-benzothiazol-2-ylamino)-4-methyl-6,7-dihydro-5H-pyrido[2,3-c]pyridazin-8-yl]-3-[1-[[3-[2-[2-[2-[3-[[(1S)-1-[(2S,4R)-4-hydroxy-2-[[(1S)-1-[4-(4-methylthiazol-5-yl)phenyl]ethyl]carbamoyl]pyrrolidine-1-carbonyl]-2,2-dimethyl-propyl]amino]-3-oxo-propoxy]ethoxy]ethyl-methyl-amino]ethoxy]-5,7-dimethyl-1-adamantyl]methyl]-5-methyl-pyrazol-4-yl]pyridine-2-carboxylic acid]
4 | > 316 | 7.59 | Cc1c(Nc2nc3ccccc3s2)nnc2c1CCCN2c1nc(C(=O)O)c(CCCOc2ccc(C#CCN3CCN(C(=O)CCCC(=O)NCCOCCNC(=O)COc4cccc5c4C(=O)N(C4CCC(=O)NC4=O)C5=O)CC3)cc2F)s1 (centres unmarked) [Example 174, 2-[3-(1,3-benzothiazol-2-ylamino)-4-methyl-6,7-dihydro-5H-pyrido[2,3-c]pyridazin-8-yl]-5-[3-[4-[3-[4-[5-[2-[2-[[2-[2-(2,6-dioxo-3-piperidyl)-1,3-dioxo-isoindolin-4-yl]oxyacetyl]amino]ethoxy]ethylamino]-5-oxo-pentanoyl]piperazin-1-yl]prop-1-ynyl]-2-fluoro-phenoxy]propyl]thiazole-4-carboxylic acid]
